According to patent EP4534610A1, “FLUOROPHORE COMPOUNDS AND PRODUCTION THEREOF” (Université Fribourg, priority 2023, dated 2025):

Experiments:
HEK/OVA-B16 cells = test: Staining and fluorescence imaging of living cells; type: cell-based
[1] = Photostability: UV-visible spectra of 5µM solutions after continuous irradiation with 400 nm light (Xenon-arc lamp, 300 Watt); type: physicochemical; settings: for stability of the absorbance under irradiation: up to 24h
Experimental: To examine the stability of the absorbance of PyPeBr and PyPe, 5µM solution (2.5 mL) of the respective compounds were prepared using different solvents. The compounds were then irradiated with 400nm using a Xenon-arc lamp at 300 Watt (25 nm FWHM). Following predefined irradiation periods, indicated in Figures 6A to 6H, UV-visible spectra were collected to monitor the stability of PyPeBr and PyPe in different solvents.

[2] = Photoluminescence emission spectra in different solvents; type: physicochemical; settings: excitation at 370nm
Experimental: The photo-physical properties of these dye molecules with stilbene-like motifs were investigated in different solvents in order to determine their maximum absorption and emission wavelengths (Figures 6A to 6C). The compounds were dissolved in Acetonitrile (CH3CN), chloroform (CHCl3), c-hexane (c-HEX), dichloromethane (DCM), dimethylformamide (DMF), methanol (MeOH), tetrahydrofuran (THF), and toluene (Tol).
The highest emission intensity was detected when THF and c-Hex were used as solvents, with lesser intensity recorded for DMF and Tol. PyPe emits light in the blue range, with emission peaks between 380nm and 550nm. Absolute intensities of up to 3.5 x 10^6 were recorded for PyPe in c-Hex.
The photoluminescence spectra of PyPeBr upon excitation at 440nm when dissolved in CH3CN, CHCl3, DCM, DMF, MeOH, or Tol, and upon excitation at 370 nm when dissolved in c-Hex or THF is shown in Figure 4B. PyPeBr has a relatively broad emission spectrum, which depends on the solvent used. The emission spectrum of PyPeBr can be as broad to cover most of the visible range. This broad emission range offers the possibility to select a desired wavelength for imaging by applying appropriate filters.
PyPh emits light in the blue range, ranging from 400nm to 500nm. […] The loss in stability is due to the self-photobleaching reactions, which are induced by irradiation.
^1H-NMR was recorded on 400 MHz (Brucker DRX 400) and ^13C-NMR spectra were recorded on Bruker 100 MHz spectrometer at room temperature with d6-DMSO as a solvent and tetramethylsilane (TMS) as the internal standard. Mass spectra were performed on the Bruker-ION Trap Ms. Fluorescence spectra were measured on an Edinburgh Instruments FS5 Spectrofluorometer. Absorption spectra were determined on a Perkin Elmer UV/VIS Lambda 2 (190-1100 nm) spectrophotometer. IR spectra were recorded on a Perking Elmer FT-IR spectrometer Frontier 4000-400 cm^-1. Single crystal structures were obtained from a STOE-IPDS II (Single crystal diffractometer λ-Mo), solved and refined using SHELXT software package.

| Compound | morphological signs of cell toxicity (HEK/OVA-B16 cells; 10µM) | uptake by living cells (HEK/OVA-B16 cells; dyes applied for up to 1 hour at 10µM) | fluorescence emission spectrum in situ, peak (HEK/OVA-B16 cells; in situ, excited at 405 nm) | stability of the absorbance under irradiation ([1]; 5µM in DCM) | stability of the absorbance under irradiation ([1]; 5µM in MeCN) | stability of the absorbance under irradiation ([1]; 5µM in MeOH) | highest emission intensity, factor less than optimal emission intensities of PyPeBr [2] | irradiation time to complete photobleaching ([1]; 5µM in ultra-pure water (Milli Q purification)) |
| --- | --- | --- | --- | --- | --- | --- | --- | --- |
| C(=C\c1ccc2ccc3cccc4ccc1c2c34)/c1ccccc1 [PyPh, (E)-1-styrylpyrene] | No morphological signs of cell toxicity | readily taken up | 450 nm | Comparable results | gradually decreases over a 24h irradiation period, with a significant drop detected as early as after 15 mins of irradiation | gradually decreases over a 24h irradiation period, with a significant drop detected as early as after 15 mins of irradiation | ~1000 |  |
| Cascade Blue |  |  |  |  |  |  |  | ≤ 8 h |
